Laboratory results taken from patent US20210261569A1, “FUSED HETEROCYCLIC DERIVATIVES HAVING SELECTIVE BACE1 INHIBITORY ACTIVITY” (Shionogi & Co., Ltd., priority 2018, published 2021).

Assays:
[1] = target: T1, P-gp (MDR1 expressing LLC-PK1 cells) (Homo sapiens, UniProt P08183); assay: P-gp substrate test; assay type: in vitro ADME; conditions: MDR1 expressing LLC-PK1 cells vs parent LLC-PK1 cells
T1 construct: host or cells: LLC-PK1 (porcine kidney) cells
Experimental: 1. MDR1 expressing LLC-PK1 cells and its parent cells were routinely cultured in Medium A (Medium 199 (Invitrogen) supplemented with 10% FBS (Invitrogen), gentamycin (0.05 mg/mL, Invitrogen) and hygromycin B (100 μg/mL, Invitrogen)) at 37° C. under 5% CO2/95% 02 gasses. For the transport experiments, these cells were seeded on Transwell (Registered trademark) insert (96-well, pore size: 0.4 μm, Coaster) at a density of 1.4×10^4 cells/insert and added Medium B (Medium 199 supplemented with 10% FBS and gentamycin at 0.05 mg/mL) to the feeder tray. These cells were incubated in a CO2 incubator (5% CO2/95% 02 gasses, 37° C.) and replace apical and basolateral culture medium every 48-72 hr after seeding. These cells were used between 4 and 6 days after seeding. 2. The medium in the culture insert seeded with MDR1 expressing cells or parent cells were removed by aspiration and rinsed by HBSS. The apical side (140 μL) or basolateral side (175 μL) was replaced with transport buffer containing reference substrates and the present invention and then an aliquot (50 μL) of transport buffer in the donor side was collected to estimate initial concentration of reference substrate and the present invention. After incubation for designed time at 37° C., an aliquot (50 μL) of transport buffer in the donor and receiver side were collected. Assay was performed by duplicate or triplicate. 3. Reference substrate and the present invention in the aliquot was quantified by LC/MS/MS.
Permeated amounts across monolayers of MDR1 expressing and parent cells were determined, and permeation coefficients (Pe) were calculated using Excel 2003 from the following equitation:
Pe (cm/sec)=Permeated amount (pmol)/area of cell membrane (cm^2)/initial concentration (nM)/incubation time (sec) Where, permeated amount was calculated from permeation concentration (nM, concentration of the receiver side) of the substance after incubation for the defined time (sec) multiplied by volume. (mL) and area of cell membrane was used 0.1433 (cm2). The efflux ratio was calculated using the following equation:
Efflux Ratio=Basolateral-to-Apical Pe/Apical-to-Basolateral Pe
The net flux was calculated using the following equation:
Net flux=Efflux Ratio in MDR1 expressing cells/Efflux Ratio in parent cells

[2] = target: T2, human ether-a-go-go related gene (hERG) channel (Homo sapiens, UniProt Q12809); assay: hERG test (whole cell patch clamp, QPatch); assay type: cell-based; conditions: CHO cells expressing hERG, tail peak current
T2 construct: expressed in transfected cells; host or cells: CHO cells
Text: For the purpose of assessing risk of an electrocardiogram QT interval prolongation, effects on delayed rectifier K+ current (IKr), which plays an important role in the ventricular repolarization process of the compound of the present invention, was studied using CHO cells expressing human ether-a-go-go related gene (hERG) channel.
A cell was retained at a membrane potential of −80 mV by whole cell patch clamp method using an automated patch clamp system (QPatch; Sophion Bioscience A/S). After application of leak potential at −50 mV, IKr induced by depolarization pulse stimulation at +20 mV for 2 seconds and, further, repolarization pulse stimulation at −50 mV for 2 seconds was recorded.
After the generated current was stabilized, extracellular solution (NaCl: 145 mmol/L, KCl: 4 mmol/L, CaCl2:2 mmol/L MgCl2:1 mmol/L, 1 mmol/L, HEPES (4-(2-hydroxyethyl)-1-piperazineethanesulfonic acid: 10 mmol/L, glucose:10 mmol/L pH=7.4) in which the compound of the present invention have been dissolved at an objective concentration was applied to the cell under the room temperature condition for 10 minutes. From the recording IKr, an absolute value of the tail peak current was measured based on the current value at the resting membrane potential using an analysis software (QPatch assay software; Sophion Bioscience A/S). Further, the % inhibition relative to the tail peak current before application of the compound of the present invention was calculated, and compared with the vehicle-applied group (0.1% dimethyl sulfoxide solution) to assess influence of the compound of the present invention on IKr.

Metabolic stability test = assay type: in vitro ADME; conditions: human liver microsomes 0.5 mg protein/mL, NADPH, 37° C.
Experimental: Using a commercially available pooled human liver microsomes, a compound of the present invention was reacted for a constant time, a remaining rate was calculated by comparing a reacted sample and an unreacted sample, thereby, a degree of metabolism in liver was assessed.
A reaction was performed (oxidative reaction) at 37° C. for 0 minute or 30 minutes in the presence of 1 mmol/L NADPH in 0.2 mL of a buffer (50 mmol/L Tris-HCl pH 7.4, 150 mmol/L potassium chloride, 10 mmol/L magnesium chloride) containing 0.5 mg protein/mL of human liver microsomes. After the reaction, 50 μL of the reaction solution was added to 100 μL of a methanol/acetonitrile=1/1 (v/v), mixed and centrifuged at 3000 rpm for 15 minutes. The compound of the present invention in the supernatant was quantified by LC/MS/MS or solid phase extraction (SPE)/MS, and a remaining amount of the compound of the present invention after the reaction was calculated, letting a compound amount at 0 minute reaction time to be 100%.

T2 sequence (Q12809 whole entry): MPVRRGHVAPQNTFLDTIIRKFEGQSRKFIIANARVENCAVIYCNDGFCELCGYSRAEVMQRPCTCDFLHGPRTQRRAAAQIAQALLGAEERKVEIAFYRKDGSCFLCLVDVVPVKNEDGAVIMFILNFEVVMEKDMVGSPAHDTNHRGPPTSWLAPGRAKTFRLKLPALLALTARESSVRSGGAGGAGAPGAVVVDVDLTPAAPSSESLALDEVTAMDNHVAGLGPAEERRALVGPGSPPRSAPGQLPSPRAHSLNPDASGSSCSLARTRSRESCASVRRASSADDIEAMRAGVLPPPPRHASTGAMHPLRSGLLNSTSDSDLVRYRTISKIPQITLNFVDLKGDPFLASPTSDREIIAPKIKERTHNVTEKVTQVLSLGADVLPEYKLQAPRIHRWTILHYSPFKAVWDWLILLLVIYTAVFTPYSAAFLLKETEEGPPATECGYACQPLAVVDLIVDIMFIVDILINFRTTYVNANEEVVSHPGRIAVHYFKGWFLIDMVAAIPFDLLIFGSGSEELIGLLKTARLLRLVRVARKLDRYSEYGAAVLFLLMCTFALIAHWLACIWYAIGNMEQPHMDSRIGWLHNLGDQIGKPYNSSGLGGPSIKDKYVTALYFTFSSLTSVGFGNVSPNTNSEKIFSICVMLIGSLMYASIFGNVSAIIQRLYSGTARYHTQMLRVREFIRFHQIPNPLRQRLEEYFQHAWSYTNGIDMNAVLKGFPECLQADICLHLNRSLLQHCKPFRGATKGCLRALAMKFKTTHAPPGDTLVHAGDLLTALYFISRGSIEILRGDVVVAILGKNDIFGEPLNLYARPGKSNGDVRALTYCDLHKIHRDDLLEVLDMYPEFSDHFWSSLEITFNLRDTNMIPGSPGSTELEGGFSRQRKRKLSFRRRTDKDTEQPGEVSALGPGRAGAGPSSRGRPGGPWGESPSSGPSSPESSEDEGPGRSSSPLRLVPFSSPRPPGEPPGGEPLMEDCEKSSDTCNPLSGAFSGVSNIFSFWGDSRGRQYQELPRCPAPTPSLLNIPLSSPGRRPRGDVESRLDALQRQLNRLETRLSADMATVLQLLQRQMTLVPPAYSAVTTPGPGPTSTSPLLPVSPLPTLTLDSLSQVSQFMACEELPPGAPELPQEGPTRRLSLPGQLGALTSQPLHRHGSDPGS
T1 sequence (P08183 whole entry): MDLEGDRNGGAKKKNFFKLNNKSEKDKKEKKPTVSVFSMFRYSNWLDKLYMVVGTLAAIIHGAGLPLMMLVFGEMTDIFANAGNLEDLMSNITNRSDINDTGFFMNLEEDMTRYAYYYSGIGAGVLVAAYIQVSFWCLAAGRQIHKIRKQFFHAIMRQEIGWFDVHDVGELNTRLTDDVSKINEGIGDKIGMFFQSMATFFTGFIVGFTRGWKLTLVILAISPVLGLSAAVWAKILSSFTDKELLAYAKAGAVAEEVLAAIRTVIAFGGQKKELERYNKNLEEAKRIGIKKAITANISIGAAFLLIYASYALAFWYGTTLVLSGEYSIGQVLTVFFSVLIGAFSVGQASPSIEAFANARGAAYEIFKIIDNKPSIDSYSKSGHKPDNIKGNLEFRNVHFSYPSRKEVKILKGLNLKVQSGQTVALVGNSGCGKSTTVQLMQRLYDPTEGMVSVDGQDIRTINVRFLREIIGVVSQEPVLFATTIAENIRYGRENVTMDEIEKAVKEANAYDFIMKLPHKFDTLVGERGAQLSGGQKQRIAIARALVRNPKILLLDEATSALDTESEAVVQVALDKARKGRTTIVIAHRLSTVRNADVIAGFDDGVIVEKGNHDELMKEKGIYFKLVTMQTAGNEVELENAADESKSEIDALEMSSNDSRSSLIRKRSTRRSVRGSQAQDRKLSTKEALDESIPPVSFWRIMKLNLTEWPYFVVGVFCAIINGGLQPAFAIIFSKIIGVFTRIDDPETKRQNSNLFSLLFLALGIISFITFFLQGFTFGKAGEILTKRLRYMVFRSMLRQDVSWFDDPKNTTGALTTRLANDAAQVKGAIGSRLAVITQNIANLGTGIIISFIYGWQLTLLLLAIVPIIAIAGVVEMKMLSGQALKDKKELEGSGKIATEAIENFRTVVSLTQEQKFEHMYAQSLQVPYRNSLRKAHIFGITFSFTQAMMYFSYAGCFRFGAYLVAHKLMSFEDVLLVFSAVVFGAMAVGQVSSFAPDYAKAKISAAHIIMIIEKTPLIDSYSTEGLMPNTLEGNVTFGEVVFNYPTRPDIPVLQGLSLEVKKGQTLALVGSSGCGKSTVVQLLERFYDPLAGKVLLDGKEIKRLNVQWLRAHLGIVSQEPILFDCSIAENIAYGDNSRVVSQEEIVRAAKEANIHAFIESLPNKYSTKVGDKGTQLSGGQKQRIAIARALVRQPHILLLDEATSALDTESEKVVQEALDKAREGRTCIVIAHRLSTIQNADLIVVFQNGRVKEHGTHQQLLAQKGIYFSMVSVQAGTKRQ

SMILES | P-gp ER ratio [1] | hERG inhibition (%) at 3 μM [2] [%] | Remaining rate (%) at 30 min (Metabolic stability test) [%]
C[C@H]1OC[C@H]2[C@@H]1OC(N)=N[C@]2(CF)c1cc(NC(=O)c2cnc(OCF)cn2)cc(F)c1F [Compound I-070] | 3.8 | 9.4 | 52
C[C@@H]1OC[C@H]2[C@@H]1OC(N)=N[C@]2(CF)c1cc(NC(=O)c2cnc(OC(F)F)cn2)ccc1F [Compound I-087] | 5.8 | 28.7 | 85
CC1(C)OC[C@H]2[C@@H]1OC(N)=N[C@]2(CF)c1cc(NC(=O)c2cnc(OCF)cn2)ccc1F [Compound I-096] | 3.3 | 19.4 | 65
NC1=N[C@](CF)(c2cc(NC(=O)c3cnc(OCF)cn3)ccc2F)[C@H]2CO[C@@H](CF)[C@H]2O1 [Compound I-112] | 5.3 | 5 | 91
NC1=N[C@](CF)(c2cc(NC(=O)c3cnc(OCF)cn3)ccc2F)[C@H]2[C@H](CF)OC[C@H]2O1 [Compound I-114] | 2.1 | 12.4 | 102
NC1=N[C@](CF)(c2cc(NC(=O)c3cnc(OCF)cn3)ccc2F)[C@H]2[C@H](CCF)OC[C@H]2O1 [Compound I-115] | 3 | 9.9 | 93
